This note sets out measurements from paper PMC3387161, “Small Molecules Targeted to a Non-Catalytic “RVxF” Binding Site of Protein Phosphatase-1 Inhibit HIV-1” (PLoS ONE, 2012).

Assay [1] concerns HIV-1 transcription in CEM-GFP cells. Briefly: cells. Type of assay: cell-based. The conditions noted are these: for IC50: Human immunodeficiency virus 1, CEM-GFP, 24 h, read-out: Inhibition of HIV-1 Transcription in CEM-GFP cells (IC50, μM).
The test system of another assay is CEM cells. Nature of the assay: Toxicity by propidium iodide fluorescence in CEM-GFP cells. In kind it is cell-based. The conditions noted are these: Homo sapiens, CCRF-CEM, 3 µM to 45 µM, 24 h.
The target of another assay is T1, recombinant PP1α (Oryctolagus cuniculus, UniProt P62139).
T1 construct: purchased New England Biolabs, Ipswich, MA
Briefly: Malachite green dephosphorylation of RVxF-containing hybrid pRb peptides by PP1α. In kind it is biochemical. The conditions noted are these: peptide as substrate, no compound added. From the text:
Here, we analyzed the effect of 1H4 on the binding of the Tat RVxF sequence to PP1 using hybrid PP1 substrates containing a substrate phosphopeptide linked to RVxF-containing sequences derived from Tat or NIPP1. As the substrate phosphopeptide, we used a retinoblastoma protein-derived HIPR(pS)[…] peptide (pRb) that is efficiently dephosphorylated by PP1 but not by the enzymatically-related PP2A [13]. The pRb peptide was linked to an extended RVxF-containing sequence derived from Tat ([…]) (pRb-Tat peptide) or the central domain of NIPP1 ([…]). To visualize the interaction between pRb-Tat and PP1 we built a computational model of the pRb-Tat peptide with PP1 complex (described in Materials and Methods). Based on this model, the pRb-Tat peptide is able to bind to the RVxF- accommodating groove of PP1 and, at the same time, to reach the active site of PP1 without any tension (Fig. 5A, green spheres; Fig. 5B, gray sticks). The pRb-Tat peptide was efficiently dephosphorylated by PP1 in vitro (Fig. 5C, V0 = 0.31 µM·min^-1). […] Addition of 1H4 at 3-fold molar excess (480 µM) over pRb-Tat (160 µM) inhibited pRb-Tat dephosphorylation and reduced the rate of dephosphorylation (Fig. 5C, V0 = 0.19 µM·min^−1) to the rate of pRb-Tat QACA dephosphorylation (Fig. 5C, V0 = 0.17 µM⋅min^−1). […] To further investigate the effect of 1H4 on the dephosphorylation of the pRb-Tat peptide, we analyzed the initial velocity versus pRb-Tat peptide substrate concentration plots. […] This was expected because the dephosphorylation site and the RVxF-containing sequence were fused into one hybrid substrate and 1H4 interferes with the binding of this substrate to PP1.
Figure 5 1H4 compound competes with RVxF motif. A. Superimposition of pRb-Tat peptide on the complex of PP1 with Spinophilin. PP1 surface is colored after the atom types. The spinophilin peptide is shown as magenta ribbon and the pRb-Tat peptide as orange ribbon. The Val25 and Phe27 residues of pRb-Tat and the Ile449 and Phe 451 residues of Spinophilin are shown as sticks. The 2-(N-morpholino)-ethanesulfonic acid bound in the active site of PP1 is shown in green spheres. The phosphorylated Ser6 residue of pRb-Tat peptide is shown as sticks. B. Phosphorylated Ser 6 residue binds to the active site of PP1. Comparative superimposition of pRb-Tat peptide over the crystal structure of MES bound in the active site of PP1. Catalytic resides are shown as sticks. MES is shown as green sticks, and the phosphorylated Ser6 residue of pRb-Tat peptide is shown as orange sticks. The pRb-Tat peptide is shown as orange ribbon. C. 1H4 inhibits kinetics of pRb-Tat peptide dephosphorylation by PP1α. Recombinant PP1α was assayed with pRb-Tat (WT or QACA mutant, 120 µM) in the absence or presence of 1H4 as indicated. The reactions were stopped at indicated time points and the phosphate release was quantified by malachite green assay. Initial velocity was calculated by linear regression in Prism. D. 1H4 inhibits kinetics of pRb-cdNIPP dephosphorylation by PP1α. Recombinant PP1α was assayed with pRb-cdNIPP1 in the absence or presence of 1H4 as indicated. Mutant pRb cdNIPP1 pA-RATA was used as negative control. The reactions were stopped at indicated time points and the phosphate release was quantified by malachite green assay. Initial velocity was calculated by linear regression in Prism. […] Initial rates of pRb-Tat peptide dephosphorylation by PP1α were assayed at the indicated concentrations of the substrate in the absence or presence of 300 µM 1H4 or non-HIV-1 inhibitory 1G3. The amount of the released phosphate was quantified with malachite green.
Malachite green dephosphorylation assays were carried out with the Ser/Thr phosphatase assay kit (Upstate, Lake Placid, NY) using recombinant PP1α (New England Biolabs, Ipswich, MA). […]

The target of another assay is PP1α (Homo sapiens, UniProt P62136).

Where “and” joins values, the source holds several entries; their conditions need not be identical. Identical values can stand only once. Square brackets hold non-standard residues; d marks the D form. Ends that are not written are not given here. pS = N[C@@H](COP(=O)(O)O)C(=O)O

T1 sequence (P62139 whole entry): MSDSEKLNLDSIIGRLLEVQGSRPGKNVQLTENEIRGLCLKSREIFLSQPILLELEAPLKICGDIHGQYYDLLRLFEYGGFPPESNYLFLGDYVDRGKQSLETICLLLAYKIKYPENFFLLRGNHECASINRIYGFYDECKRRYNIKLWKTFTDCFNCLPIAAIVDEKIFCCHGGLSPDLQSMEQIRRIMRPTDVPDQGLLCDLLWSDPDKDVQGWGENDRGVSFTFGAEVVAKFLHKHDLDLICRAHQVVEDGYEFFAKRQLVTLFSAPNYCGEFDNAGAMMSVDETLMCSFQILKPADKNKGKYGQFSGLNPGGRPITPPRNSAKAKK
PP1α, sequence (P62136 whole entry): as the sequence (P62139 whole entry) above

`Nc1c2c(nc3ccccc13)CCCC2` [9-amino-1,2,3,4-tetrahydroacridine, reference compound]: the “Activity as HIV-1 transcription inhibitor (in words)” value in assay [1] (data not shown, assay not specified) is recorded as “not active”.

Consider `CCC(c1nnc(SCC(=O)Nc2ncc(-c3ccc(F)cc3)s2)n1Cc1ccccc1)N(C)C` (stereo not shown) [T5251659], for which the IC50 stood at 6 µM in the assay on CEM cells and 10 µM in assay [1].

On to `CCN(CC)S(=O)(=O)c1ccc2c(c1)nc(CCC(=O)N(C)c1ccc(C(F)(F)F)cc1)n2C` [T5326526], for which the IC50 in the assay with CEM cells worked out at 10 µM; in assay [1], 15 µM.

For `CC(OC(=O)c1ccccc1SCC(=O)Nc1ccc2c(c1)OCO2)C(=O)NCCC1=CCCCC1` (stereo not shown) [T5369370], the IC50 is 15 µM in the assay with CEM cells and 10 µM in assay [1].

As for `O=S(=O)(Nc1ccc(S(=O)(=O)N2CCC(Cc3ccccc3)CC2)cn1)c1ccccc1` [T5481237], the IC50 in the assay with CEM cells worked out at 20 µM; in assay [1], 15 µM.

For the molecule `O=C(CNC(=O)c1ccccc1SCC(=O)NC12CC3CC(CC(C3)C1)C2)Nc1ccc(Cl)cc1` [T5498680], the IC50 (in the assay on CEM cells; in assay [1]) was 5 µM in each case.

As for `CN(C1CCCCC1)S(=O)(=O)c1ccc(NC(=O)COc2ccccc2-c2ccccc2)cc1` [T5551920], the IC50 (in the assay with CEM cells; in assay [1]) was 15 µM in each case.

Take “HIPR(pS)PYKFPSSPLRKKCCFHCQACAITK (HIPR[pS]PYKFPSSPLRKKCCFHCQACAITK; cysteine pairing not given here) [pRb-Tat QACA]”: in the assay with recombinant PP1α, the “Initial velocity V0 of peptide dephosphorylation by PP1α” value (“Initial velocity V0 … by PP1α” below) is 0.17 µM/min and 0.17 ± 0.02 µM/min.

For the molecule “HIPR(pS)PYKFPSSPLRKKCCFHCQVCFITK [pRb-Tat]”, the “Initial velocity V0 … by PP1α” value in the assay with recombinant PP1α was 0.31 µM/min and 0.31 ± 0.03 µM/min.

For “HIPR[pS]PYKFPSSPL [pRb, reference compound]”, the “Initial velocity V0 … by PP1α” value at recombinant PP1α was 0.014 µM/min.

In the case of “HIPR[pS]PYKFPSSPLRAAAAASRATASED [pRb-NIPP1 pA-RATA]”, the “Initial velocity V0 … by PP1α” value worked out at 0.004 µM/min with recombinant PP1α and 0.017 ± 0.004 µM/min in the assay with recombinant PP1α (listed as pRb-cdNIPP1 pA-RATA).

For the molecule “HIPR[pS]PYKFPSSPLRKRKRKNSRVTFSED [pRb-NIPP1]”, the “Initial velocity V0 … by PP1α” value at recombinant PP1α is 0.56 µM/min; at recombinant PP1α (listed as pRb-cdNIPP1), 0.56 ± 0.03 µM/min.

In the case of HIPR[pS]PYKFPSSPLRKRKRKNSRVTFSED [pRb-NIPP1 peptide], in the assay with PP1α, the initial velocity V0 of dephosphorylation of the peptide by recombinant PP1α in the presence of the small molecule 1H4 was 0.37 µM⋅min^−1 and the initial velocity V0 of dephosphorylation of the peptide by recombinant PP1α in vitro (malachite green) was 0.56 µM⋅min^−1.

What is called IC50 is the concentration that gives 50% inhibition.
